Test results taken from article PMC10914316 (Biochemistry, 2023).
Read-outs that look alike come from different tables or passages of the source.

Columns and labels:
ArnA_DH [1] = biological target: T1, ArnA_DH (Escherichia coli, UniProt P77398); conditions: for Tm (melting temperature of ArnA_DH with ligand): no ligand Tm = 318.4 ± 0.03 K
ArnA_DH [2] = biological target: T1, ArnA_DH; assay: biochemical
ArnA_DH_N492A [3] = biological target: T2, ArnA_DH_N492A (Escherichia coli, UniProt P77398, N492A); assay: NADH binding; format: biochemical; conditions: concentrations as high as 10 mM
T2 sequence (P77398 314-660 N492A): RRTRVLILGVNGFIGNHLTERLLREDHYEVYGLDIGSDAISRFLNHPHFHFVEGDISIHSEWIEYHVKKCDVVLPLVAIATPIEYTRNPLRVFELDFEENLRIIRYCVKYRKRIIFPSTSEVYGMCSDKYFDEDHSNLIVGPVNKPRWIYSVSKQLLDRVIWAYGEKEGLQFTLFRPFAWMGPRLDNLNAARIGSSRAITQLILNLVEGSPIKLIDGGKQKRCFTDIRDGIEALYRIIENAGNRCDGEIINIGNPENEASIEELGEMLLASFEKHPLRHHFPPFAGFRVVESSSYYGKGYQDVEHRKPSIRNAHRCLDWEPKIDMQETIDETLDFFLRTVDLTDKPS

ArnA_DH_N492A [4] = biological target: T2, ArnA_DH_N492A; assay: Thermal stability shift assay for ligand binding to N492A mutant

Structure (SMILES)	ligand binding by thermal stability shift assay (ArnA_DH [1]; 1 mM and 10 mM ligand)	Tm (melting temperature of ArnA_DH with ligand) (ArnA_DH [1]; 1 mM ligand)	Tm (melting temperature of ArnA_DH with ligand) (ArnA_DH [1]; 10 mM ligand)	Kd (ArnA_DH [2])	UDP-GlcA-induced conformational change of ArnA_DH_N492A (intrinsic NADH fluorescence) (ArnA_DH_N492A [3])	Kd (ArnA_DH_N492A [4])
O=C(O)[C@H]1O[C@H](OP(=O)(O)O)[C@H](O)[C@@H](O)[C@@H]1O [GlcA-1P, glucuronic acid-1-phosphate]	undetectable	318.9 ± 0.02 K	318.4 ± 0.03 K	–	–	–
O=C(O)[C@H]1O[C@H](OP(=O)(O)OP(=O)(O)OC[C@H]2O[C@@H](n3ccc(=O)[nH]c3=O)[C@H](O)[C@@H]2O)[C@H](O)[C@@H](O)[C@@H]1O [UDP-GlcA, UDP-glucuronic acid]	–	–	–	22 ± 5 µM	little change in the intrinsic NADH fluorescence	36 ± 7 µM
O=c1ccn([C@@H]2O[C@H](COP(=O)(O)OP(=O)(O)O[C@H]3OC[C@@H](O)[C@H](O)[C@H]3O)[C@@H](O)[C@H]2O)c(=O)[nH]1 [UDP-xylose]	–	320.0 ± 0.03 K	–	633 ± 116 µM	–	–
O=c1ccn([C@@H]2O[C@H](COP(=O)(O)O)[C@@H](O)[C@H]2O)c(=O)[nH]1 [UMP, uridine monophosphate]	–	320.6 ± 0.02 K	–	594 ± 135 µM	–	–
